# Data taken from paper PMC11008770 (Nature structural & molecular biology, 2023).
# Read-outs that look alike come from different tables or passages of the source.
# Experiments:
# AE1 [1] = target: T1, AE1 (Homo sapiens, UniProt P02730); assay: Cellular bicarbonate uptake assay; format: cell-based
# T1 sequence (P02730 1-911): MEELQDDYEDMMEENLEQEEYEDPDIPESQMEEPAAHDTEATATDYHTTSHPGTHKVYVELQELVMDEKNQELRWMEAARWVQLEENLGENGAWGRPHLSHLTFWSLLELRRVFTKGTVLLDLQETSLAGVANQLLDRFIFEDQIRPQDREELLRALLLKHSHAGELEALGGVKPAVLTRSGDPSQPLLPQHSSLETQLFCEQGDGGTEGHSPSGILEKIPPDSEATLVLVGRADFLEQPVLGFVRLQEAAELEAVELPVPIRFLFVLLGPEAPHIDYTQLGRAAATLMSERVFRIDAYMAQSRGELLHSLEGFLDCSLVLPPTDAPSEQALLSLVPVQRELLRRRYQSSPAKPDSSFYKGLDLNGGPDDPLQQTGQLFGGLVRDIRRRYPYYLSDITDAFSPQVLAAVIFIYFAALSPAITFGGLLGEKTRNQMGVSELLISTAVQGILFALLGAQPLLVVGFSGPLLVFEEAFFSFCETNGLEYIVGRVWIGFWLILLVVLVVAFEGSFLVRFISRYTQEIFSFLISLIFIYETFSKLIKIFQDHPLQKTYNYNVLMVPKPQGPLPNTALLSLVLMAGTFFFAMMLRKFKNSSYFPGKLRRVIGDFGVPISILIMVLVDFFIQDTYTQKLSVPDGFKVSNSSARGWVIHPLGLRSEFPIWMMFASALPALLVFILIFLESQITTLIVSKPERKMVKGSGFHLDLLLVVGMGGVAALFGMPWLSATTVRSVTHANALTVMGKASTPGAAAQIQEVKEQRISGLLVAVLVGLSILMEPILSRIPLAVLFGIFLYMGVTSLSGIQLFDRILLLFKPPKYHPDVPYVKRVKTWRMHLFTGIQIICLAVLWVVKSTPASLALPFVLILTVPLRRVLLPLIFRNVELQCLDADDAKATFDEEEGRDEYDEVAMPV
# AE1 [2] = settings: read-out: Kd of bicarbonate; flux studies in erythrocytes; cited from earlier work
# AE1 [3] = settings: read-out: Kd of bicarbonate; NMR studies; cited from earlier work
Structure (SMILES),IC50 (AE1 [1]) [µM],"AE1 inhibition in cellular bicarbonate uptake, single dose (AE1 [1]; 50 μM throughout the experiment, n = 3)",Kd (AE1 [2]) [µM],Kd (AE1 [3]) [µM]
"O=C(O)c1cccnc1Nc1cccc(C(F)(F)F)c1 [NIF, Niflumic acid]",15,statistically significant AE1 inhibition,,
O=C(O)O [bicarbonate],,,2000,5400
